Measured values as given in patent US9820486B2, “Compositions and methods for controlling nematodes” (Monsanto Technology LLC, priority 2009, dated 2017).
Several values for one entry are separate records, joined by “and”; a condition that tells them apart may be missing. Equal entries are not always repeated. Marks after values point to notes of the source that are not given here.

How the values were obtained:
Meloidogyne incognita = test: M. incognita miniaturized greenhouse assay on cucumber seedlings (root galling); type: in vivo; conditions: cucumber roots, average of triplicate gall rating; for 8 ppm gall ratings: scale 0=0-5%, 1=6-20%, 2=21-50%, 3=51-100% root mass galled; for 1 ppm gall ratings: scale 0-3
Protocol: The test compound is dissolved in an acetone solution and added to water. A sprouted cucumber seedling is placed into a vial with dry sand and the water-chemical solution is added immediately. Twenty four hours later Meloidogyne incognita eggs are added to the vials and 10 to 12 days later the roots are evaluated for nematode galling.
Cucumber seeds are sprouted for 3 days in moist paper towels. Acceptable sprouts should be 3 to 4 cm long with several lateral roots just emerging. Stock solutions of chemistry are prepared in a mixture of acetone and Triton X100 (412 mg in 500 mL) to a final concentration of 5 mg/mL. The chemical stock solution is then added to 10 mL deionized water plus 0.015% Triton X100 and mixed thoroughly. This is enough to test each condition in triplicate. Ten mL dry sand is added to each vial. At this time the solubility of the chemistry is visually determined and recorded as either ppt (large precipitates) or cloudy (fine precipitates). Seedlings are planted by tilting the vial and laying the seedling in the correct orientation so that the cotyledons are just above the sand and then tilting back to cover the radicles with sand. 3.3 ml water/chemical mix is added to each vial and the vials placed in racks under fluorescent light banks. The vials are inoculated two days after planting by adding 500 vermiform M. incognita eggs to each vial in 50 uL of deionized or spring water. The vials are then kept under the fluorescent lamps at ambient room temperature and watered as needed with 1 mL deionized water, usually twice during duration of test. Harvest of the cucumber plants is done 10 to 12 days after inoculation by washing sand off the roots. A root gall rating and visual phytotoxicity rating is assigned using the following scales: Gall rating scale (Gall: % root mass galled): 0=0-5%; 1=6-20%; 2=21-50%; and 3=51-100%. The average of the triplicate gall rating is then calculated: green=0.00-0.33 (no galls); yellow=0.67-1.33 (mild galling); orange=1.67-2.33 (moderate galling); red=2.67-3.00 (severe galling). Visual phytotoxicity scale is also assigned (Vis. tox; visual reduction in root mass compared to the control): rs1=mild stunting; rs2=moderate stunting; rs3=severe stunting.

root knot nematode (RKN) = test: RKN greenhouse soil assay on cucumber plants; type: in vivo, Meloidogyne incognita; conditions: 0 day treatment, rated 14 days after egg inoculation
From the text: Cucumber seeds are planted in a sandy soil mixture in two inch square plastic pots. When the cotyledons are fully opened and just as the first leaf begins to emerge, usually 7 days after planting, chemistry for the 7-day treatment is applied. One week later the chemistry for the 0 day treatment is applied. Separate plants are used for each application. The plants are generally in the 1-2 leaf stage now. At least four hours after the chemistry application the pots are inoculated with root knot nematode (RKN) eggs. Plants are rated for galling 14 days after the egg inoculation.
(§1) One milligram of chemistry per four pots is equal to one kilogram per hectare of chemical. A standard test uses four replications. For rates above 2 kg/ha, the desired amount of chemical is weighed into a 30 ml vial (example: 8 kg/ha rate=8 mg chemical in 30 ml vial). The chemical is dissolved in 2 ml of appropriate solvent, generally acetone. For rates below 2 kg/ha, 2 milligrams of chemistry is weighed into the vial and dissolved in 2 ml of the solvent. The appropriate amount of chemical concentrate is then pipetted into a separate 30 ml vial and solvent is added to bring the volume to 2 ml (example 0.5 kg/ha=0.5 ml of concentrate+1.5 ml solvent). Each dissolved concentrate is then brought to a total of 20 milliliters using 0.05% Triton X 100 surfactant solution.
(§2) Pots to be treated are moist but not saturated. To each of four pots, five milliliters of the appropriate chemical solution is pipetted to the media surface making sure to avoid contact with the base of the plant. Immediately following chemical application, using a mist nozzle, the pot surface is wetted sufficiently to saturate the pot watering in the chemistry. The chemical application is done in the morning.
(§3) Nematode eggs, either SCN or RKN, are added to distilled water to create a concentration of 1000 vermiform eggs […]. At least four hours after chemical treatment the eggs are applied to the treated pots plus non-treated check plants. A small hole about 1 cm deep is punched into the pot surface. […]

[1] = system: soybean cyst nematode (SCN); test: SCN greenhouse soil assay on soybean plants; type: in vivo, Heterodera glycines; conditions: 0 day treatment, harvested 28 days after egg inoculation, tests a and b
From the text: Soybeans seeds are planted in 100% sand in two inch square plastic pots. Chemical treatment is done when the soybeans show the first trifoliate beginning to emerge about 10 to 12 days after planting. At least four hours after chemical application the nematode soybean cyst nematode (SCN) eggs are applied and 28 days after the egg inoculation the test is harvested.
as §1, §2
as §3, with “surface. One milliliter of the nematode egg slurry is pipetted into the hole. Immediately afterwards the hole is gently covered. Watering of the test plants is then restricted to only water as needed to prevent wilt for a period of 24 hours.” for “surface.”

| Structure (SMILES) | 8 ppm gall ratings (Meloidogyne incognita) | percent control (galling reduction) relative to the control blank treatment, 0 day 1 kg/ha rate (root knot nematode (RKN)) | percent control (cyst reduction) relative to the control blank treatment, 0 day 0.25 kg/ha rate [1] | 1 ppm gall ratings (Meloidogyne incognita) |
| --- | --- | --- | --- | --- |
| Clc1cccc(Oc2noc(-c3ccco3)n2)c1 [Name 4, 3-(3-chlorophenoxy)-5-(furan-2-yl)-1,2,4-oxadiazole] | 0^b | 83% | 67% and 78% | – |
| Clc1ccc(-c2cnc(-n3cccc3)o2)cc1 [Name 10, 5-(4-chlorophenyl)-2-(1H-pyrrol-1-yl)oxazole] | – | 100% | – | 1.33 |
| Clc1ccc(Oc2noc(-c3ccco3)n2)cc1 [Name 3, 3-(4-chlorophenoxy)-5-(furan-2-yl)-1,2,4-oxadiazole] | 0^b | 89% | 79%^a, 79%^b | – |
| Clc1cccc(-c2noc(Cc3ccco3)n2)c1 [Name 2, 3-(3-chlorophenyl)-5-(furan-2-ylmethyl)-1,2,4-oxadiazole] | 1.3^a | – | – | – |
| Clc1ccc(-c2noc(Cc3ccco3)n2)cc1 [Name 1, 3-(4-chlorophenyl)-5-(furan-2-ylmethyl)-1,2,4-oxadiazole] | 1.3^a | – | – | – |
| Clc1ccc(-c2coc(-c3ccco3)n2)cc1 [Name 8, 4-(4-chlorophenyl)-2-(furan-2-yl)oxazole] | 0.67^d | – | – | – |
| Clc1ccc(-c2coc(-c3ccco3)n2)c(Cl)c1 [Name 6, 4-(2,4-dichlorophenyl)-2-(furan-2-yl)oxazole] | 0.33^c | – | – | – |
| Clc1ccc(Cc2nsc(-c3ccco3)n2)cc1 [Name 5, 3-(4-chlorobenzyl)-5-(furan-2-yl)-1,2,4-thiadiazole] | 0.67^b | – | – | – |
| Cc1ccc(-c2coc(-c3ccco3)n2)c(C)c1 [Name 7, 4-(2,4-dimethylphenyl)-2-(furan-2-yl)oxazole] | 1.33^c | – | – | – |
| CNC(=O)O/N=C(\SC)C(=O)N(C)C [Oxamyl, reference compound] | – | – | 67%^b | 1.33^e |
| Clc1ccc(-c2cnc(Sc3cccs3)o2)cc1 [Name 9, 5-(4-chlorophenyl)-2-(thiophen-2-ylthio)oxazole] | 1.33^d | – | – | – |
